Results: PubChem BioAssay AID296 (DTP/NCI, 2004)
Values joined by “and” are separate entries in the source; they are usually repeats but may differ in a detail not shown here. Equal values may be shown once. Results filed as inconclusive are left out.

Test system: MX-1 breast xenograft, nude mice, tumor weight T/C
Assay: NCI In Vivo Anticancer Drug Screen. Data for tumor model Human Mammary Carcinoma MX-1 Xenograft (intrarenal inoculation) in NU/NU Swiss (nude) mice
Conditions: endpoint: mean tumor weight change, higher = larger tumour
Summary of the method: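 Mice carrying the implanted tumor receive either test agent or vehicle. Tumor size or survival is then recorded for both groups. Results are stated as the treated-to-control quotient.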

[1] = dose: 200.0 mg/kg/injection, schedule: Q04DX003 (sc), vehicle: Klucel (hydroxypropylcellulose) (HPC)
[2] = dose: 400.0 mg/kg/injection, schedule: Q04DX003 (sc), vehicle: Klucel (hydroxypropylcellulose) (HPC)
[3] = dose: 800.0 mg/kg/injection, schedule: Q04DX003 (sc), vehicle: Klucel (hydroxypropylcellulose) (HPC)
[4] = dose: 100.0 mg/kg/injection, schedule: Q01DX010 (sc), vehicle: saline with Tween-80
[5] = dose: 150.0 mg/kg/injection, schedule: Q04DX003 (sc), vehicle: saline
[6] = dose: 25.0 mg/kg/injection, schedule: Q04DX003 (sc), vehicle: saline
[7] = dose: 50.0 mg/kg/injection, schedule: Q04DX003 (sc), vehicle: saline

What does the source list for O=Cc1ccccc1?
T/C [1]: 96 % of control; T/C [2]: 92 % of control; T/C [3]: 85 % of control

O=Cc1ccc(C(Cl)(Cl)Cl)cc1 was tested. Which T/C [4] did it give?
The T/C was 182 % of control.

What about the T/C (dose: 400.0 mg/kg/injection, schedule: Q01DX010 (sc), vehicle: saline with Tween-80) of the same compound?
The T/C was 120 % of control.

And the T/C (dose: 800.0 mg/kg/injection, schedule: Q01DX010 (sc), vehicle: saline with Tween-80)?
The T/C was 46 % of control.

Which T/C (dose: 100.0 mg/kg/injection, schedule: Q04DX003 (sc), vehicle: suspension in saline) does the source give for O=CC(S)CO (centres undefined) here?
The T/C was 151 % of control.

For C1CNCOC1, which T/C [5] is on record?
Its T/C is 100 % of control.

What about the T/C (dose: 300.0 mg/kg/injection, schedule: Q04DX003 (sc), vehicle: saline) of the same compound?
The T/C was 84 % of control.

O=C(Nc1ccccc1C(=O)O)c1cc([N+](=O)[O-])cc([N+](=O)[O-])c1 was tested. Which T/C (dose: 100.0 mg/kg/injection, schedule: Q04DX003 (sc), vehicle: saline with Tween-80) did it give?
The T/C was 101 % of control.

What about the T/C (dose: 200.0 mg/kg/injection, schedule: Q04DX003 (sc), vehicle: saline with Tween-80) of the same compound?
The T/C was 120 % of control.

CCC(=O)O[C@H]1CC[C@H]2[C@@H]3CCC4=CC(=O)CC[C@]4(C)[C@H]3CC[C@]12C was tested. Which T/C (dose: 300.0 mg/kg/injection, schedule: Q04DX003 (sc), vehicle: Klucel (hydroxypropylcellulose) (HPC)) did it give?
The T/C was 76 % of control.

And the T/C (dose: 600.0 mg/kg/injection, schedule: Q04DX003 (sc), vehicle: Klucel (hydroxypropylcellulose) (HPC))?
Its T/C is 88 % of control.

What about the T/C (dose: 1200.0 mg/kg/injection, schedule: Q04DX003 (sc), vehicle: Klucel (hydroxypropylcellulose) (HPC)) of the same compound?
The T/C was 74 % of control.

And the T/C (dose: 2400.0 mg/kg/injection, schedule: Q04DX003 (sc), vehicle: Klucel (hydroxypropylcellulose) (HPC))?
The T/C was 115 % of control.

For COCC(O)Cn1ccnc1[N+](=O)[O-] (centres undefined), which T/C (dose: 300.0 mg/kg/injection, schedule: Q04DX003 (sc), vehicle: suspension in saline) is on record?
Its T/C is 202 % of control.

And the T/C (dose: 600.0 mg/kg/injection, schedule: Q04DX003 (sc), vehicle: suspension in saline)?
Its T/C is 95 % of control.

What about the T/C (dose: 1200.0 mg/kg/injection, schedule: Q04DX003 (sc), vehicle: suspension in saline) of the same compound?
The T/C was 108 % of control.

How did the T/C (dose: 12.5 mg/kg/injection, schedule: Q04DX003 (sc), vehicle: saline) turn out when C[CH2][Ge]1([CH2]C)[CH2]CC2(CCN(CCCN(C)C)C2)C[CH2]1 was run?
The T/C was 72 % of control.

What about the T/C [6] of the same compound?
Its T/C is 92 % of control.

And the T/C [7]?
The T/C was 72 % of control.

And the T/C (dose: 100.0 mg/kg/injection, schedule: Q04DX003 (sc), vehicle: saline)?
The T/C was 85 % of control.

How did the T/C (dose: 25.0 mg/kg/injection, schedule: Q04DX003 (sc), vehicle: Klucel (hydroxypropylcellulose) (HPC)) turn out when Cc1ccc2c(c1)C(=O)N(CC[P+](c1ccccc1)(c1ccccc1)c1ccccc1)C2=O was run?
Its T/C is 110 % of control.

How did the T/C (dose: 300.0 mg/kg/injection, schedule: Q04DX003 (sc), vehicle: DMSO) turn out when CC1(C)CC23C4COC(=O)C2CCC1C3CC4=O (centres undefined) was run?
The T/C was 108 % of control.

What about the T/C (dose: 600.0 mg/kg/injection, schedule: Q04DX003 (sc), vehicle: DMSO) of the same compound?
Its T/C is 82 % of control.

And the T/C (dose: 1200.0 mg/kg/injection, schedule: Q04DX003 (sc), vehicle: DMSO)?
The T/C was 104 % of control.

And the T/C (dose: 2400.0 mg/kg/injection, schedule: Q04DX003 (sc), vehicle: DMSO)?
The T/C was 74 % of control.

Which results are given for NC(=S)N/N=C\c1ncccc1OCc1cccc(N)c1?
T/C (dose: 600.0 mg/kg/injection, schedule: Q04DX003 (sc), vehicle: saline with Tween-80): 75 % of control; T/C (dose: 1200.0 mg/kg/injection, schedule: Q04DX003 (sc), vehicle: saline with Tween-80): 152 % of control

What does the source list for Cc1ccc(NCC2(/N=C/c3ccccc3)OC(CO)C(O)C2O)cc1 (centres undefined)?
T/C [1]: 109 % of control; T/C [2]: 124 % of control; T/C [3]: 94 % of control; T/C (dose: 1600.0 mg/kg/injection, schedule: Q04DX003 (sc), vehicle: Klucel (hydroxypropylcellulose) (HPC)): 101 % of control

With Cc1c(N)nc([C@H](CC(N)=O)NC[C@H](N)C(N)=O)nc1C(=O)N[C@H](C(=O)N[C@H](C)[C@@H](O)[C@H](C)C(=O)N[C@H](C(=O)NCCc1nc(-c2nc(C(=O)NCCC[S+](C)C)cs2)cs1)[C@@H](C)O)C(OC1OC(CO)C(O)C(O)C1OC1OC(CO)C(O)C(OC(N)=O)C1O)c1cnc[nH]1 (some centres undefined) as the compound, how does the T/C (dose: 4.0 mg/kg/injection, schedule: Q01DX010 (ip), vehicle: saline) read?
Its T/C is 86 % of control.

And the T/C (dose: 6.25 mg/kg/injection, schedule: Q04DX003 (sc), vehicle: saline)?
The T/C was 93 % of control.

What about the T/C (dose: 8.0 mg/kg/injection, schedule: Q01DX010 (ip), vehicle: saline) of the same compound?
Its T/C is 55 % of control.

And the T/C (dose: 8.0 mg/kg/injection, schedule: Q04DX003 (sc), vehicle: saline)?
The T/C was 87 % of control.

What about the T/C (dose: 13.3 mg/kg/injection, schedule: Q04DX003 (sc), vehicle: saline) of the same compound?
The T/C was 67 % of control.

What about the T/C (dose: 13.33 mg/kg/injection, schedule: Q04DX003 (ip), vehicle: saline) of the same compound?
Its T/C is 101 % of control and 120 % of control.

And the T/C (dose: 13.33 mg/kg/injection, schedule: Q04DX003 (sc), vehicle: saline)?
The T/C was 45 % of control.

And the T/C (dose: 16.0 mg/kg/injection, schedule: Q01DX010 (ip), vehicle: saline)?
Its T/C is 49 % of control.

What about the T/C (dose: 16.0 mg/kg/injection, schedule: Q04DX003 (sc), vehicle: saline) of the same compound?
The T/C was 46 % of control.

And the T/C [6]?
Its T/C is 50 % of control.

What about the T/C (dose: 26.65 mg/kg/injection, schedule: Q04DX003 (ip), vehicle: saline) of the same compound?
The T/C was 71 % of control.

And the T/C (dose: 26.66 mg/kg/injection, schedule: Q04DX003 (ip), vehicle: saline)?
Its T/C is 89 % of control.

What about the T/C (dose: 32.0 mg/kg/injection, schedule: Q01DX010 (ip), vehicle: saline) of the same compound?
The T/C was 53 % of control.

What about the T/C (dose: 32.0 mg/kg/injection, schedule: Q04DX003 (sc), vehicle: saline) of the same compound?
Its T/C is 15 % of control.

And the T/C (dose: 37.5 mg/kg/injection, schedule: Q04DX003 (sc), vehicle: saline)?
The T/C was 80 % of control.

What about the T/C [7] of the same compound?
The T/C was 46 % of control.

What about the T/C (dose: 53.3 mg/kg/injection, schedule: Q04DX003 (ip), vehicle: saline) of the same compound?
The T/C was 63 % of control.

And the T/C (dose: 53.3 mg/kg/injection, schedule: Q04DX003 (sc), vehicle: saline)?
The T/C was 49 % of control.

What about the T/C (dose: 53.33 mg/kg/injection, schedule: Q04DX003 (ip), vehicle: saline) of the same compound?
The T/C was 59 % of control.

What about the T/C (dose: 53.33 mg/kg/injection, schedule: Q04DX003 (sc), vehicle: saline) of the same compound?
The T/C was 106 % of control.

And the T/C (dose: 75.0 mg/kg/injection, schedule: Q04DX003 (sc), vehicle: saline)?
The T/C was 30 % of control.

And the T/C (dose: 106.6 mg/kg/injection, schedule: Q04DX003 (ip), vehicle: saline)?
The T/C was 88 % of control.

And the T/C (dose: 106.6 mg/kg/injection, schedule: Q04DX003 (sc), vehicle: saline)?
The T/C was 51 % of control.

What about the T/C (dose: 106.66 mg/kg/injection, schedule: Q04DX003 (sc), vehicle: saline) of the same compound?
The T/C was 64 % of control.

What about the T/C [5] of the same compound?
The T/C was 17 % of control.

How did the T/C (dose: 37.5 mg/kg/injection, schedule: Q04DX003 (sc), vehicle: suspension in saline) turn out when CN1C(=O)CC2(CCN(CCCC(=O)c3ccc(F)cc3)CC2)C1=O was run?
Its T/C is 61 % of control.

And the T/C (dose: 150.0 mg/kg/injection, schedule: Q04DX003 (sc), vehicle: suspension in saline)?
Its T/C is 85 % of control.

How did the T/C (dose: 12.5 mg/kg/injection, schedule: Q01DX010 (sc), vehicle: dextrose) turn out when O=C(O)CC(=O)O.[NH-]CC[NH-].[Pt+2] was run?
Its T/C is -100 % of control.

And the T/C (dose: 100.0 mg/kg/injection, schedule: Q01DX010 (sc), vehicle: dextrose)?
The T/C was -100 % of control.

Which results are given for CC1=C(/C=C/C(C)=C/C=C/C(C)=C/C(=O)O)C(C)(C)CCC1?
T/C (dose: 25.0 mg/kg/injection, schedule: Q01DX010 (sc), vehicle: saline with Tween-80): 86 % of control; T/C (dose: 50.0 mg/kg/injection, schedule: Q01DX010 (sc), vehicle: saline with Tween-80): 58 % of control; T/C [4]: 52 % of control

COc1cc(NCc2ccc3nc(N)nc(N)c3c2C)cc(OC)c1OC (tested in a mixture with another compound) was tested. Which T/C (dose: 10.0 mg/kg/injection, schedule: Q04DX003 (ip), vehicle: water) did it give?
Its T/C is 92 % of control.

What about the T/C (dose: 20.0 mg/kg/injection, schedule: Q04DX003 (ip), vehicle: water) of the same compound?
Its T/C is 100 % of control.

What about the T/C (dose: 40.0 mg/kg/injection, schedule: Q04DX003 (ip), vehicle: water) of the same compound?
Its T/C is 101 % of control.

What about the T/C (dose: 80.0 mg/kg/injection, schedule: Q04DX003 (ip), vehicle: water) of the same compound?
Its T/C is 115 % of control.

And the T/C (dose: 160.0 mg/kg/injection, schedule: Q04DX003 (ip), vehicle: water)?
Its T/C is 70 % of control.

How did the T/C (dose: 18.0 mg/kg/injection, schedule: Q04DX003 (sc), vehicle: saline with Tween-80) turn out when O=C1c2cccc3cc([N+](=O)[O-])cc(c23)C(=O)N1CCN1CCCC1 was run?
The T/C was 120 % of control.

And the T/C (dose: 36.0 mg/kg/injection, schedule: Q04DX003 (sc), vehicle: saline with Tween-80)?
The T/C was 96 % of control.

What about the T/C (dose: 72.0 mg/kg/injection, schedule: Q04DX003 (sc), vehicle: saline with Tween-80) of the same compound?
The T/C was 85 % of control.

Cc1cc(NCCCCCCCNc2cc(C)nc3cc(N)ccc23)c2ccc(N)cc2n1 was tested. Which T/C (dose: 12.5 mg/kg/injection, schedule: Q01DX010 (sc), vehicle: saline with Tween-80) did it give?
Its T/C is 53 % of control and 56 % of control and 72 % of control.
